How the values were obtained:
Cricetinae gen. sp. [1] = experiment: In vivo activity to reduce liver cholesterol esters (hamster) at 50 mpk; assay type: functional, Cricetulus griseus
[2] = molecular target: T1, Sterol O-acyltransferase 1 (Rattus norvegicus, UniProt O70536); experiment: In vitro inhibitory activity against acyl-coenzyme A:cholesterol acyltransferase 1 from rat hepatic microsomes.
T1 sequence (O70536 whole entry): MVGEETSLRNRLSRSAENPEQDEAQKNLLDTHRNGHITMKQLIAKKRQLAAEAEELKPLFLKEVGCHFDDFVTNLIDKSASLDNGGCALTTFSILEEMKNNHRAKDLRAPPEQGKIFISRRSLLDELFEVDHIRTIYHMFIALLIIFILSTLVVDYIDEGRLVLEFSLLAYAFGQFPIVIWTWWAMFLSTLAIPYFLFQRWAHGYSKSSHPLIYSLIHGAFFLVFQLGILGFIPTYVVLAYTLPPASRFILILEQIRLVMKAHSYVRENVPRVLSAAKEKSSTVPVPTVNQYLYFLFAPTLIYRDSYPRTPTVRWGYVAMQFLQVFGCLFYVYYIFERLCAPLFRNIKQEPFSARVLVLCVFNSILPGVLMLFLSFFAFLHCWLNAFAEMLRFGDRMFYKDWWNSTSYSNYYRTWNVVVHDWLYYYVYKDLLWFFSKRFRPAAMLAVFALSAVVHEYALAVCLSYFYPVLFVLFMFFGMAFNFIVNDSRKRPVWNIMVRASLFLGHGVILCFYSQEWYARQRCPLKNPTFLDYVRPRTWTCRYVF

Cricetinae gen. sp. [3] = experiment: In vivo activity to reduce liver cholesterol esters (hamster) at 1 mg/kg/day; assay type: functional, Cricetulus griseus
Cricetinae gen. sp. [4] = experiment: In vivo activity to reduce liver cholesterol esters (hamster) at 5 mg/kg/day; assay type: functional, Cricetulus griseus
[5] = molecular target: T1, Sterol O-acyltransferase 1; experiment: (§1) In vitro inhibitory activity against Acyl coenzyme A:cholesterol acyltransferase 1 from rat hepatic microsomes at 10 uM
[6] = molecular target: T2, Sterol O-acyltransferase 1 (Rattus norvegicus) (UniProt O70536); experiment: In vitro inhibitory activity against acyl-coenzyme A:cholesterol acyltransferase 1 from rat hepatic microsomes at 10 uM
T2 sequence (whole entry): T1 sequence (O70536 whole entry)

[7] = molecular target: T2, Sterol O-acyltransferase 1 (Rattus norvegicus); experiment: as §1

IC50 [2]	inhibition [6]	Structure (SMILES)	Reduction (Cricetinae gen. sp. [1])	other results
100 nM	99%	O=C(N[C@@H]1c2ccccc2C[C@@H]1c1ccc(O)cc1)C(c1ccccc1)c1ccccc1	91%	Reduction (Cricetinae gen. sp. [3]): 73%; Reduction (Cricetinae gen. sp. [4]): 88%; IC50 [5]: 40 nM
		COc1ccc2c(c1)C(NC(=O)C(c1ccccc1)c1ccccc1)CCC2 (stereo not given)	0%	
		O=C(N[C@@H]1c2ccccc2CCC[C@@H]1c1ccc(O)cc1)C(c1ccccc1)c1ccccc1	0%	
	92%	COc1ccc(CC(NC(=O)C(c2ccccc2)c2ccccc2)c2ccccc2)cc1 (stereo not given)	65%	
		COc1ccc([C@H]2CCc3ccc(OC)cc3[C@H]2NC(=O)C(c2ccccc2)c2ccccc2)cc1	0%	
3000 nM	77%	COc1ccc([C@H]2CCCC[C@H]2NC(=O)C(c2ccccc2)c2ccccc2)cc1	20%	
350 nM	91%	O=C(N[C@@H]1c2ccccc2CC[C@@H]1c1ccc(O)cc1)C(c1ccccc1)c1ccccc1	16%	
		O=C(NC(Cc1ccc(O)cc1)c1cccc(O)c1)C(c1ccccc1)c1ccccc1 (stereo not given)	0%	
400 nM	98%	COc1ccc2c(c1)[C@H](NC(=O)C(c1ccccc1)c1ccccc1)[C@@H](c1ccc(O)cc1)CC2	97%	
	95%	O=C(NC(Cc1ccccc1)c1ccc(O)cc1)C(c1ccccc1)c1ccccc1 (stereo not given)	69%	
600 nM	94%	O=C(N[C@H]1CCCC[C@@H]1c1ccc(O)cc1)C(c1ccccc1)c1ccccc1	0%	
		O=C(N[C@@H]1c2c(O)cccc2CC[C@@H]1c1ccccc1)C(c1ccccc1)c1ccccc1	20%	
		COc1ccccc1[C@H]1CCc2ccccc2[C@H]1NC(=O)C(c1ccccc1)c1ccccc1 (stereo in doubt; trans)	0%	
100 nM	100%	COc1ccc([C@H]2CCCC[C@@H]2NC(=O)C(c2ccccc2)c2ccccc2)cc1	0%	
		O=C(NC(Cc1ccc(O)cc1)c1ccc(O)cc1)C(c1ccccc1)c1ccccc1 (stereo not given)	40%	
		O=C(N[C@@H]1c2cccc(O)c2CC[C@@H]1c1ccccc1)C(c1ccccc1)c1ccccc1	0%	
1800 nM	77%	O=C(N[C@@H]1c2ccccc2CC[C@@H]1c1cccc(O)c1)C(c1ccccc1)c1ccccc1	0%	
1300 nM	94%	O=C(N[C@H]1c2cc(O)ccc2CC[C@@H]1c1ccccc1)C(c1ccccc1)c1ccccc1	78%	
		Nc1ccc([C@H]2CCc3ccccc3[C@H]2NC(=O)C(c2ccccc2)c2ccccc2)cc1	57%	
		COc1cccc([C@H]2CCc3ccccc3[C@@H]2NC(=O)C(c2ccccc2)c2ccccc2)c1	0%	
		O=C(NC1c2ccccc2CC1c1ccc(O)cc1)C(c1ccccc1)c1ccccc1 (racemic)		Reduction (Cricetinae gen. sp. [3]): 27%; Reduction (Cricetinae gen. sp. [4]): 63%; IC50 [5]: 100 nM
		COc1ccc([C@H]2CCc3ccccc3[C@@H]2NC(=O)C(c2ccccc2)c2ccccc2)cc1	0%	

IC50 [2]	inhibition [6]	Structure (SMILES)	Reduction (Cricetinae gen. sp. [1])	other results
900 nM	92%	O=C(N[C@H]1c2ccc(O)cc2CC[C@@H]1c1ccccc1)C(c1ccccc1)c1ccccc1	0%	
700 nM	98%	O=C(N[C@H]1c2ccccc2CC[C@@H]1c1cccc(O)c1)C(c1ccccc1)c1ccccc1	0%	
		O=C(N[C@H]1c2ccccc2C[C@H]1c1ccc(O)cc1)C(c1ccccc1)c1ccccc1		Reduction (Cricetinae gen. sp. [3]): 0%; Reduction (Cricetinae gen. sp. [4]): 0%; IC50 [5]: 13000 nM
		COc1ccc([C@H]2CCc3ccccc3[C@H]2NC(=O)C(c2ccccc2)c2ccccc2)cc1	0%	
	92%	O=C(NC(Cc1ccc(O)cc1)c1ccccc1)C(c1ccccc1)c1ccccc1 (stereo not given)		
3000 nM	80%	O=C(N[C@@H]1CCCC[C@@H]1c1ccc(O)cc1)C(c1ccccc1)c1ccccc1	0%	
		O=C(N[C@H]1c2ccccc2CC[C@@H]1c1ccccc1O)C(c1ccccc1)c1ccccc1	0%	
		O=C(N[C@@H]1c2ccccc2CC[C@@H]1c1ccncc1)C(c1ccccc1)c1ccccc1	39%	
		COc1cccc([C@H]2CCc3ccccc3[C@H]2NC(=O)C(c2ccccc2)c2ccccc2)c1	0%	
230 nM	99%	O=C(N[C@H]1c2ccccc2C[C@@H]1c1ccc(O)cc1)C(c1ccccc1)c1ccccc1	52%	
		O=C(N[C@H]1c2ccccc2CCC[C@@H]1c1ccc(O)cc1)C(c1ccccc1)c1ccccc1	61%	
		O=C(N[C@@H]1c2ccccc2OC[C@@H]1c1ccc(O)cc1)C(c1ccccc1)c1ccccc1	0%	
		O=C(N[C@@H]1c2cc(O)ccc2CC[C@@H]1c1ccc(O)cc1)C(c1ccccc1)c1ccccc1	0%	
2400 nM	84%	O=C(N[C@@H]1c2cc(O)ccc2CC[C@@H]1c1ccccc1)C(c1ccccc1)c1ccccc1	38%	
700 nM	93%	O=C(N[C@H]1c2ccccc2CC[C@@H]1c1ccc(O)cc1)C(c1ccccc1)c1ccccc1	58%	
		O=C(NC(Cc1ccccc1)c1cccc(O)c1)C(c1ccccc1)c1ccccc1 (stereo not given)	19%	
	88%	COc1ccc(C(Cc2ccccc2)NC(=O)C(c2ccccc2)c2ccccc2)cc1 (stereo not given)	69%	
		O=C(N[C@H]1c2cccc(O)c2CC[C@@H]1c1ccccc1)C(c1ccccc1)c1ccccc1	0%	
		O=C(NC1CCCc2ccccc21)C(c1ccccc1)c1ccccc1 (stereo not given)		inhibition [7]: 37%
900 nM	87%	O=C(N[C@@H]1c2ccc(O)cc2CC[C@@H]1c1ccccc1)C(c1ccccc1)c1ccccc1	45%	
		O=C(N[C@H]1c2ccccc2OC[C@@H]1c1ccc(O)cc1)C(c1ccccc1)c1ccccc1	0%	
	40%	COc1ccc(CC(NC(=O)C(c2ccccc2)c2ccccc2)c2ccc(OC)cc2)cc1 (stereo not given)	32%	
